Results on 4 compounds are retold here after ChEMBL document CHEMBL1201862, “PubChem BioAssay data set” (2004).

Among the test systems are HOP-62; HCT-116; NCI-H460; MCF7; SK-MEL-5; HT-29; NCI-H522; RXF 393; RPMI-8226; HL-60; CAKI-1; SR; MDA-N; TK-10; A498; 786-0; IGROV-1; SNB-75; UACC-62; DU-145.
Common to all, as to assay: NCI tumour cell line growth inhibition, 48 h

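Grown in 96-well plates, cells were treated for 48 hours with each compound at five concentrations. Insufficient inhibition: endpoint recorded as highest concentration tested. At the GI50, growth is halved.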 Calls of active or inactive are those of the source. Cut-off read from the data, not from the text of the source: active = GI50 up to about 1.1 µM and inactive = higher.

Regarding `CSC(=N\c1ccccc1)/N=C(\SCc1ccccc1)N(C)C`, the GI50 is 1.7 µM (inactive) with HOP-62; 292 nM (active) in the experiment on HCT-116; 161 nM (active) in the experiment on NCI-H460; 278 nM (active) in the experiment with MCF7; 1.47 µM (inactive) in the experiment on SK-MEL-5; 288 nM (active) in the experiment with HT-29. For the same compound, the GI50 in the experiment on NCI-H522 was 210 nM (active); with RXF 393, 989 nM (active); in the experiment with RPMI-8226, 218 nM (active); in the experiment with HL-60, 172 nM (active); in the experiment on CAKI-1, 927 nM (active); with SR it was 160 nM (active). The GI50 with MDA-N was 0.748 µM (active); with TK-10, 1.15 µM (inactive); with A498, 1.65 µM (inactive); in the experiment on 786-0, 531 nM (active); in the experiment with IGROV-1 it was 0.923 µM (active); in the experiment with SNB-75, 1.62 µM (inactive). Besides, the GI50 in the experiment with UACC-62 was 555 nM (active); in the experiment on DU-145, 0.9 µM (active).
`Cc1cc(-c2c(F)cc3c4nn([C@H]5CC[C@@H](N(C)C)CC5)c(=O)c-4cn(C4CC4)c3c2F)cc(C)n1`: the GI50 in the experiment with HOP-62 was 0.097 µM (active); in the experiment with HCT-116 it was 160 nM (active); in the experiment on NCI-H460 it was < 22.4 nM (active); in the experiment on MCF7, 72.8 nM (active); in the experiment with SK-MEL-5 it was 0.289 µM (active); in the experiment with HT-29, 245 nM (active). In addition, the GI50 in the experiment with NCI-H522 was 169 nM (active); with RXF 393, 430 nM (active); in the experiment on RPMI-8226, 1110 nM (active); in the experiment on HL-60, 38.3 nM (active); with CAKI-1, 51.9 nM (active); in the experiment with SR, 73.5 nM (active). The GI50 was 1.56 µM (inactive) with MDA-N; 0.519 µM (active) in the experiment on TK-10; 0.0229 µM (active) with A498; 133 nM (active) with 786-0; 1.66 µM (inactive) in the experiment on IGROV-1; 0.0512 µM (active) with SNB-75. Also, the GI50 with UACC-62 was 159 nM (active); in the experiment with DU-145, 0.416 µM (active).
For `C=C1CC2(CC(c3ccccc3OC)OC(c3ccccc3OC)C2)OC1=O` (stereo not given), the GI50 was 13.6 µM (inactive) in the experiment on HOP-62; 1780 nM (inactive) in the experiment with HCT-116; 5750 nM (inactive) in the experiment with NCI-H460; 1670 nM (inactive) in the experiment on MCF7; 2.58 µM (inactive) in the experiment on SK-MEL-5; 2060 nM (inactive) in the experiment with HT-29. The GI50 with NCI-H522 is 1500 nM (inactive); in the experiment on RXF 393 it was 1810 nM (inactive); in the experiment on RPMI-8226, 250 nM (active); in the experiment on HL-60, 771 nM (active); in the experiment on CAKI-1 it was 2470 nM (inactive); in the experiment with SR it was 1840 nM (inactive). For the same compound, the GI50 was 1.83 µM (inactive) with MDA-N; 1.71 µM (inactive) in the experiment on TK-10; 5.81 µM (inactive) in the experiment on A498; 1630 nM (inactive) in the experiment with 786-0; 1.74 µM (inactive) in the experiment on IGROV-1; 2.59 µM (inactive) in the experiment on SNB-75. Also, the GI50 is 2180 nM (inactive) in the experiment on UACC-62 and 7.8 µM (inactive) with DU-145.
Regarding `COc1ccc(/N=N/C(=O)NC(Cc2ccccc2)C(=O)O)cc1` (stereo not given), the GI50 was > 100 µM (inactive) in the experiment with HOP-62; > 100000 nM (inactive) in the experiment on HCT-116; > 100000 nM (inactive) in the experiment with NCI-H460; > 100000 nM (inactive) with MCF7; > 100 µM (inactive) in the experiment with SK-MEL-5; > 100000 nM (inactive) with HT-29. Further, the GI50 in the experiment with NCI-H522, in the experiment on RXF 393, with RPMI-8226, in the experiment with HL-60, in the experiment on CAKI-1 and in the experiment with SR was > 100000 nM (inactive) throughout. Besides, the GI50 in the experiment on MDA-N was > 100 µM (inactive); in the experiment on TK-10, > 100 µM (inactive); with A498 it was > 100 µM (inactive); in the experiment with 786-0, > 100000 nM (inactive); with IGROV-1, > 100 µM (inactive); with SNB-75, > 100 µM (inactive). Besides, the GI50 in the experiment on UACC-62 was 87900 nM (inactive); in the experiment on DU-145, > 100 µM (inactive).
